Measured values published in the OligoGym collection.
“And” between values parts separate entries of the source, which are not always exact repeats. Equal values may be shown once. After the bases stand the sugars from the 5' end (letter, count) and the backbone: PS all phosphorothioate, else s phosphorothioate and o phosphodiester by linkage. Methylation of C is not given here. e = 2'-O-(2-methoxyethyl) (MOE); k = constrained ethyl (cEt); d = 2'-deoxy (DNA)

Target: IRF4
Details: ASO

Sequence	target mRNA inhibition (SK-MEL-28, 4 µM)	target mRNA inhibition (MM.1R, 1 µM)	other results
GGTAAAGGCACATTCC (sugars k3 d10 k3, PS)	47%	–	–
GGTAACAATACTGTAA (sugars k3 d10 k3, PS)	59%	–	–
GGTAAGGGCCCCGTGA (sugars k3 d10 k3, PS)	33%	–	–
GGTACGGGATTTCCGG (sugars k3 d10 k3, PS)	–	12%	–
GGTCAATTTTCACAGT (sugars k3 d10 k3, PS)	64%	–	–
GGTCACAGGTAAGGGC (sugars k3 d10 k3, PS)	25%	–	–
GGTGAAACTGAGAGTG (sugars k3 d10 k3, PS)	8%	–	–
GGTGGCTCAGCAGCTT (sugars k3 d10 k3, PS)	37%	–	–
GGTTGGCTGGTCTTTG (sugars kkddddddddddkeke, PS)	–	76% and 60%	target mRNA inhibition (MM.1R, 0.0625 µM): 18%; target mRNA inhibition (MM.1R, 0.25 µM): 33%; target mRNA inhibition (MM.1R, 4 µM): 72%
GGTTGGCTGGTCTTTG (sugars kkdddddddddekeke, PS)	–	73% and 66%	target mRNA inhibition (MM.1R, 0.0625 µM): 34%; target mRNA inhibition (MM.1R, 0.25 µM): 47%; target mRNA inhibition (MM.1R, 4 µM): 84%
GGTTTATTAGCTTTCT (sugars k3 d10 k3, PS)	-1%	–	–
GTAAACTGCCTTAGGG (sugars k3 d10 k3, PS)	44%	–	–
GTAAAGGTAAAGGCAC (sugars k3 d10 k3, PS)	42%	–	–
GTAAATGAGTCGGTCA (sugars k3 d10 k3, PS)	79%	–	–
GTAACAATACTGTAAG (sugars k3 d10 k3, PS)	55%	–	–
GTAACTCAGGCACCAC (sugars k3 d10 k3, PS)	47%	–	–
GTAACTGACACGCACA (sugars k3 d10 k3, PS)	51%	–	–
GTAACTTGACTTGAGA (sugars k3 d10 k3, PS)	49%	–	–
GTAAGAGGGCAGTCAA (sugars k3 d10 k3, PS)	44%	–	–
GTAAGATCTCCATGGT (sugars k3 d10 k3, PS)	–	17%	–
GTAAGTGATAGGTATA (sugars k3 d10 k3, PS)	76% and 68%	–	–
GTACACTTTGTACGGG (sugars k3 d10 k3, PS)	64%	–	–
GTACAGGACAGGTAAA (sugars k3 d10 k3, PS)	25%	–	–

Sequence	target mRNA inhibition (SK-MEL-28, 4 µM)	target mRNA inhibition (MM.1R, 1 µM)	other results
GTACAGTCCACTCCAC (sugars k3 d10 k3, PS)	10%	–	–
GTACATGGCAGTGGAG (sugars k3 d10 k3, PS)	56%	–	–
GTAGAAGCCCACAAGA (sugars k3 d10 k3, PS)	-4%	–	–
GTAGAGTGAGATGCGG (sugars k3 d10 k3, PS)	–	51% and 40%	target mRNA inhibition (MM.1R, 0.0625 µM): -4%; target mRNA inhibition (MM.1R, 0.25 µM): 16%; target mRNA inhibition (MM.1R, 4 µM): 70%
GTAGGTAGGCACCTGT (sugars k3 d10 k3, PS)	75%	–	–
GTAGTATGAGAAACGG (sugars kkddddddddddkeke, PS)	–	28%	–
GTAGTATGAGAAACGG (sugars kkdddddddddkekek, PS)	–	50%	–
GTAGTATGAGAAACGG (sugars kkkdddddddddkeke, PS)	–	15%	–
GTAGTATGAGAAACGG (sugars kkkddddddddkekek, PS)	–	43%	–
GTATTAATATTCTGAC (sugars k3 d10 k3, PS)	63%	–	–
GTATTTTTCCGTTCCT (sugars k3 d10 k3, PS)	–	84% and 74%	target mRNA inhibition (H929, 0.04 µM): 33% and 14%; target mRNA inhibition (KMS11, 0.2 µM): 82% and 96%; target mRNA inhibition (MM.1R, 0.0625 µM): 34%; target mRNA inhibition (MM.1R, 0.25 µM): 57%; target mRNA inhibition (MM.1R, 4 µM): 93%
GTCACGCCCGCAAAAG (sugars k3 d10 k3, PS)	39%	–	–
GTCATATGGCTAAACC (sugars k3 d10 k3, PS)	–	23%	–
GTCCACATACCTGAAA (sugars k3 d10 k3, PS)	–	8%	–
GTCCGGTTAGCTCATC (sugars k3 d10 k3, PS)	45%	–	–
GTCCTGCTTGCCCGCG (sugars k3 d10 k3, PS)	31%	–	–
GTCCTTCAGATTTACA (sugars k3 d10 k3, PS)	–	-17%	–
GTCTACTTGAGTCTGT (sugars k3 d10 k3, PS)	51%	–	–
GTCTAGACAGAGAGTC (sugars k3 d10 k3, PS)	2%	–	–
GTCTAGCTGGGTTTTC (sugars k3 d10 k3, PS)	63%	–	–
GTCTCTACCTACTCCA (sugars k3 d10 k3, PS)	41%	–	–
GTCTGAGATGTCCAGC (sugars k3 d10 k3, PS)	–	7%	–
GTCTGAGGGAATCTGC (sugars k3 d10 k3, PS)	49%	–	–

Sequence	target mRNA inhibition (SK-MEL-28, 4 µM)	target mRNA inhibition (MM.1R, 1 µM)	other results
GTCTGGCTAGCAGAGG (sugars k3 d10 k3, PS)	66%	–	target mRNA inhibition (SK-MEL-28, 0.185 µM): 10%; target mRNA inhibition (SK-MEL-28, 5 µM): 68%; target mRNA inhibition (SK-MEL-28, 15 µM): 89%
GTCTTAAGGGTTCAAG (sugars k3 d10 k3, PS)	49%	–	–
GTCTTCCACAAGAACT (sugars k3 d10 k3, PS)	47%	–	–
GTCTTTGGGATTCTAT (sugars k3 d10 k3, PS)	65%	–	–
GTGAAACAGCAGTTCT (sugars k3 d10 k3, PS)	62%	–	–
GTGACATAAAGGACCC (sugars k3 d10 k3, PS)	–	10%	–
GTGACTGGAGAGCAAT (sugars k3 d10 k3, PS)	74%	–	–
GTGATAGCTGAGCTGA (sugars kddddddddddkekek, PS)	–	29%	–
GTGATAGCTGAGCTGA (sugars kdddddddddkekeke, PS)	–	16%	–
GTGATAGCTGAGCTGA (sugars kkdddddddddkdkdk, PS)	–	34%	–
GTGATAGCTGAGCTGA (sugars kkdddddddddkekek, PS)	–	39%	–
GTGATGTCAGGTTTTC (sugars k3 d9 k3 e1, PS)	–	71%	target mRNA inhibition (MM.1R, 0.074 µM): 16%; target mRNA inhibition (MM.1R, 0.222 µM): 41%; target mRNA inhibition (MM.1R, 0.666 µM): 66%; target mRNA inhibition (MM.1R, 2 µM): 85%
GTGATGTCAGGTTTTC (sugars kdddddddddkekeke, PS)	–	30%	–
GTGATGTCAGGTTTTC (sugars kkdddddddddekeke, PS)	–	58%	target mRNA inhibition (MM.1R, 0.074 µM): 14%; target mRNA inhibition (MM.1R, 0.222 µM): 16%; target mRNA inhibition (MM.1R, 0.666 µM): 30%; target mRNA inhibition (MM.1R, 2 µM): 59%
GTGATGTCAGGTTTTC (sugars kkkdddddddddkeke, PS)	–	34%	–
GTGATGTCAGGTTTTC (sugars kkkddddddddkekek, PS)	–	57%	target mRNA inhibition (MM.1R, 0.074 µM): 14%; target mRNA inhibition (MM.1R, 0.222 µM): 35%; target mRNA inhibition (MM.1R, 0.666 µM): 54%; target mRNA inhibition (MM.1R, 2 µM): 77%
GTGCAAGATGACTCCA (sugars k3 d10 k3, PS)	56%	–	–
GTGCAGGAGAGGCTGA (sugars k3 d10 k3, PS)	32%	–	–
GTGTCTAAAGTCCCAT (sugars kkddddddddddkeke, PS)	–	9% and 6%	–
GTGTGATTAATTCTCC (sugars k3 d10 k3, PS)	–	64% and 44%	target mRNA inhibition (MM.1R, 0.0625 µM): -15%; target mRNA inhibition (MM.1R, 0.25 µM): 8%; target mRNA inhibition (MM.1R, 4 µM): 87%
GTGTGCTTGCCAAGCC (sugars k2 d9 e3 k2, PS)	–	75% and 62%	–
GTGTGCTTGCCAAGCC (sugars kkdddddddddekeke, PS)	–	17% and 19%	–
